According to PubChem BioAssay AID248 (DTP/NCI, 2004):
Several values for one entry are separate records, joined by “and”; a condition that tells them apart may be missing. Identical values can stand only once. Toxic doses and inconclusive results are not listed. Cut-off read from the data, not from the text of the source: active = T/C of 150% or more; inactive = T/C below 125%.

Test system: L1210 leukemia ip in BDF1 mice, survival T/C
Test: NCI In Vivo Anticancer Drug Screen. Data for tumor model L1210 Leukemia (intraperitoneal) in B6D2F1 (BDF1) mice
Details: endpoint: mean survival time, higher = longer survival
Summary of the method: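 Each compound was tested against a transplantable tumor grown in mice. The endpoint was survival, with treated animals benchmarked against vehicle controls as a simple ratio.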

[1] = dose: 100.0 mg/kg/injection, schedule: Q01DX001 (ip), vehicle: Klucel (hydroxypropylcellulose) (HPC)
[2] = dose: 100.0 mg/kg/injection, schedule: Q01DX009 (ip), vehicle: Klucel (hydroxypropylcellulose) (HPC)
[3] = dose: 200.0 mg/kg/injection, schedule: Q01DX009 (ip), vehicle: Klucel (hydroxypropylcellulose) (HPC)
[4] = dose: 400.0 mg/kg/injection, schedule: Q01DX009 (ip), vehicle: Klucel (hydroxypropylcellulose) (HPC)
[5] = dose: 400.0 mg/kg/injection, schedule: Q04DX003 (ip), vehicle: Klucel (hydroxypropylcellulose) (HPC)
[6] = dose: 100.0 mg/kg/injection, schedule: Q04DX003 (ip), vehicle: saline with Tween-80
[7] = dose: 200.0 mg/kg/injection, schedule: Q04DX003 (ip), vehicle: saline with Tween-80
[8] = dose: 50.0 mg/kg/injection, schedule: Q01DX001 (ip), vehicle: carboxymethylcellulose (CMC)
[9] = dose: 100.0 mg/kg/injection, schedule: Q01DX001 (ip), vehicle: carboxymethylcellulose (CMC)
[10] = dose: 100.0 mg/kg/injection, schedule: Q01DX001 (ip), vehicle: saline
[11] = dose: 200.0 mg/kg/injection, schedule: Q01DX001 (ip), vehicle: carboxymethylcellulose (CMC)
[12] = dose: 200.0 mg/kg/injection, schedule: Q01DX001 (ip), vehicle: saline
[13] = dose: 100.0 mg/kg/injection, schedule: Q01DX009 (ip), vehicle: saline
[14] = dose: 200.0 mg/kg/injection, schedule: Q01DX009 (ip), vehicle: saline
[15] = dose: 400.0 mg/kg/injection, schedule: Q01DX009 (ip), vehicle: saline
[16] = dose: 75.0 mg/kg/injection, schedule: Q01DX001 (ip), vehicle: saline
[17] = dose: 150.0 mg/kg/injection, schedule: Q01DX001 (ip), vehicle: saline

Measured: T/C

Cc1cc(NC(=O)Nc2cc([N+](=O)[O-])ccc2Cl)no1
inactive: [1] 89 % of control | [2] 96 % of control and 98 % of control | dose: 100.0 mg/kg/injection, schedule: Q04DX002 (ip), vehicle: Klucel (hydroxypropylcellulose) (HPC) 104 % of control and 91 % of control | dose: 100.0 mg/kg/injection, schedule: Q04DX003 (ip), vehicle: Klucel (hydroxypropylcellulose) (HPC) 96 % of control | [3] 106 % of control and 90 % of control | dose: 200.0 mg/kg/injection, schedule: Q04DX002 (ip), vehicle: Klucel (hydroxypropylcellulose) (HPC) 95 % of control and 98 % of control | dose: 200.0 mg/kg/injection, schedule: Q04DX003 (ip), vehicle: Klucel (hydroxypropylcellulose) (HPC) 97 % of control | [4] 98 % of control | dose: 400.0 mg/kg/injection, schedule: Q04DX002 (ip), vehicle: Klucel (hydroxypropylcellulose) (HPC) 95 % of control and 106 % of control | [5] 97 % of control

c1ccc(-c2ccc(-c3c(-c4ccccc4)ccc(-c4ccccc4)c3-c3ccccc3)cc2)cc1
inactive: dose: 100.0 mg/kg/injection, schedule: Q01DX001 (ip), vehicle: saline with Tween-80 104 % of control | dose: 200.0 mg/kg/injection, schedule: Q01DX001 (ip), vehicle: saline with Tween-80 104 % of control | dose: 400.0 mg/kg/injection, schedule: Q01DX001 (ip), vehicle: saline with Tween-80 112 % of control

CC(=O)N(C)C1=C(Sc2ccc(Cl)cc2)C(=O)c2ccccc2C1=O
inactive: dose: 75.0 mg/kg/injection, schedule: Q01DX001 (ip), vehicle: carboxymethylcellulose (CMC) 91 % of control | dose: 150.0 mg/kg/injection, schedule: Q01DX001 (ip), vehicle: carboxymethylcellulose (CMC) 88 % of control

CC(C)=CCC(=O)Oc1ccccc1C(=O)O
inactive: [6] 92 % of control | [7] 102 % of control

O=C1NC2(CCCC2)C(=O)N2CCCC12 (stereo not given)
inactive: [5] 97 % of control

O=CNc1c(Cl)c(Cl)c2c(c1Cl)Cc1cc(Cl)ccc1-2
inactive: [8] 94 % of control | dose: 50.0 mg/kg/injection, schedule: Q04DX003 (ip), vehicle: acetone 97 % of control | dose: 75.0 mg/kg/injection, schedule: Q01DX009 (ip), vehicle: saline with Tween-80 108 % of control | [9] 91 % of control | [10] 91 % of control | dose: 100.0 mg/kg/injection, schedule: Q04DX003 (ip), vehicle: acetone 105 % of control | dose: 150.0 mg/kg/injection, schedule: Q01DX009 (ip), vehicle: saline with Tween-80 109 % of control | [11] 102 % of control | [12] 91 % of control | dose: 200.0 mg/kg/injection, schedule: Q04DX003 (ip), vehicle: acetone 94 % of control

CC(=O)NC(C)(SC(c1ccccc1)c1ccccc1)C(=O)O (stereo not given)
inactive: [1] 100 % of control | dose: 200.0 mg/kg/injection, schedule: Q01DX001 (ip), vehicle: Klucel (hydroxypropylcellulose) (HPC) 100 % of control | dose: 400.0 mg/kg/injection, schedule: Q01DX001 (ip), vehicle: Klucel (hydroxypropylcellulose) (HPC) 105 % of control

CCOC(=O)N1CCOCC1
inactive: [13] 100 % of control | [14] 97 % of control | [15] 96 % of control

C[CH2][Pb]([CH2]C)([CH2]C)[O]C(=O)c1ccc(N)cc1
inactive: dose: 0.75 mg/kg/injection, schedule: Q01DX009 (ip), vehicle: Klucel (hydroxypropylcellulose) (HPC) 91 % of control | dose: 1.5 mg/kg/injection, schedule: Q01DX009 (ip), vehicle: Klucel (hydroxypropylcellulose) (HPC) 100 % of control | dose: 3.0 mg/kg/injection, schedule: Q01DX009 (ip), vehicle: Klucel (hydroxypropylcellulose) (HPC) 100 % of control | dose: 6.0 mg/kg/injection, schedule: Q01DX009 (ip), vehicle: Klucel (hydroxypropylcellulose) (HPC) 102 % of control | dose: 12.0 mg/kg/injection, schedule: Q01DX009 (ip), vehicle: Klucel (hydroxypropylcellulose) (HPC) 103 % of control | dose: 12.5 mg/kg/injection, schedule: Q04DX002 (ip), vehicle: Klucel (hydroxypropylcellulose) (HPC) 110 % of control | dose: 25.0 mg/kg/injection, schedule: Q04DX002 (ip), vehicle: Klucel (hydroxypropylcellulose) (HPC) 103 % of control

NC(=O)CC[n+]1cccc(C(=O)O)c1
inactive: [13] 93 % of control | dose: 100.0 mg/kg/injection, schedule: Q04DX003 (ip), vehicle: saline 94 % of control | [14] 88 % of control | dose: 200.0 mg/kg/injection, schedule: Q04DX003 (ip), vehicle: saline 93 % of control | [15] 92 % of control | dose: 400.0 mg/kg/injection, schedule: Q04DX003 (ip), vehicle: saline 94 % of control

O=C(Nc1ccccc1C(=O)N/N=C/c1ccccc1O)c1ccccc1Cl
inactive: [2] 94 % of control | [3] 94 % of control | [4] 94 % of control

CN(C)CCNc1ccccn1
inactive: [16] 98 % of control | [17] 104 % of control

CCCCCCOC(CN(C)C)C(Cl)(Cl)Cl (stereo not given)
inactive: dose: 100.0 mg/kg/injection, schedule: Q01DX009 (ip), vehicle: saline with Tween-80 101 % of control | [6] 93 % of control | dose: 200.0 mg/kg/injection, schedule: Q01DX009 (ip), vehicle: saline with Tween-80 98 % of control | [7] 95 % of control | dose: 400.0 mg/kg/injection, schedule: Q04DX003 (ip), vehicle: saline with Tween-80 98 % of control

Cc1ccccc1NC(=O)CC#N
inactive: dose: 100.0 mg/kg/injection, schedule: Q04DX002 (ip), vehicle: saline with Tween-80 90 % of control | dose: 200.0 mg/kg/injection, schedule: Q04DX002 (ip), vehicle: saline with Tween-80 101 % of control | dose: 400.0 mg/kg/injection, schedule: Q04DX002 (ip), vehicle: saline with Tween-80 94 % of control

COc1ccc(OC(=O)Nc2ccc(F)cc2)cc1
inactive: [8] 97 % of control | dose: 50.0 mg/kg/injection, schedule: Q01DX009 (ip), vehicle: carboxymethylcellulose (CMC) 93 % of control and 90 % of control | dose: 50.0 mg/kg/injection, schedule: Q04DX002 (ip), vehicle: carboxymethylcellulose (CMC) 95 % of control and 106 % of control | dose: 50.0 mg/kg/injection, schedule: Q04DX003 (ip), vehicle: carboxymethylcellulose (CMC) 101 % of control | [9] 89 % of control | dose: 100.0 mg/kg/injection, schedule: Q01DX009 (ip), vehicle: carboxymethylcellulose (CMC) 93 % of control and 103 % of control | dose: 100.0 mg/kg/injection, schedule: Q04DX002 (ip), vehicle: carboxymethylcellulose (CMC) 101 % of control and 110 % of control | dose: 100.0 mg/kg/injection, schedule: Q04DX003 (ip), vehicle: carboxymethylcellulose (CMC) 101 % of control | [11] 89 % of control | dose: 200.0 mg/kg/injection, schedule: Q01DX009 (ip), vehicle: carboxymethylcellulose (CMC) 101 % of control and 104 % of control | dose: 200.0 mg/kg/injection, schedule: Q04DX002 (ip), vehicle: carboxymethylcellulose (CMC) 96 % of control and 106 % of control | dose: 200.0 mg/kg/injection, schedule: Q04DX003 (ip), vehicle: carboxymethylcellulose (CMC) 101 % of control

COC(=O)C1=C(C(=O)OC)C2C=CC1C2
inactive: [10] 102 % of control | [2] 111 % of control | [12] 94 % of control | [3] 91 % of control | dose: 400.0 mg/kg/injection, schedule: Q01DX001 (ip), vehicle: saline 91 % of control | [4] 97 % of control

Nc1nc2ncc(CNc3ccc(CC(=O)NC(CCC(=O)O)C(=O)O)cc3)nc2c(=O)[nH]1 (stereo not given)
inactive: [16] 103 % of control | [17] 103 % of control
